In US20230227435A1, “SMALL MOLECULE MODULATORS OF IL-17” (LEO PHARMA A/S, priority 2020, published 2023):
pEC50: −log10 of the molar value.

Target: T1, human IL-17AA (Homo sapiens, UniProt Q16552)
T1 construct: host or cells: HEK (human embryonic kidney) cells
T1 sequence (Q16552 24-155) 1: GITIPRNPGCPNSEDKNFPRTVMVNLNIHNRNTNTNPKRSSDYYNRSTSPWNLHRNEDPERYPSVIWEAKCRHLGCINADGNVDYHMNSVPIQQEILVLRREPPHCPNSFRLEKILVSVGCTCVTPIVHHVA
T1 sequence (Q16552 24-155) 2: T1 sequence (Q16552 24-155) 1
Experiment: IL-8 release assay in human epithelial keratinocytes adult (HEKa)
Assay type: cell-based
Conditions: HEKa cells; 3 ng/mL HEK-human IL-17AA + 10 ng/mL human TNFalpha; 68-72 hours; IL-8 by HTRF; read-out: Rel EC50 IL-8 release assay
Procedure: Example 8: IL-8 Release Assay in Human Epithelial Keratinocytes Adult (HEKa)
Keratinocytes were seeded at 3500 cells/well in 384-well ViewPlates (Perkin Elmer) in Epilife medium (Thermo Fisher) containing human keratinocyte growth supplement (HKGS) without hydrocortisone and incubated in a humid incubator at 37° C., 5% CO2, overnight. The following day growth medium was removed and 25 μl fresh Epilife medium was added. 75 nL test compound in100% DMSO was added into each well reserved for test compounds, by the use of acoustic pipetting. The remaining wells received an equal volume of DMSO only, as vehicle control, or terfenadine in DMSO, as a positive control for any cytotoxic compounds. Subsequently, another 25 μL Epilife medium was added to each well. Finally, wells containing test compounds and wells prepared to yield maximum stimulation received 25 μL of 9 ng/mL recombinant, human embryonic kidney cell (HEK)-derived human IL-17AA+30 ng/mL human TNF-alpha, in Epilife medium. Wells prepared to define 100% inhibition of IL-17 effects received 25 μL of 30 ng/mL human TNF-alpha alone, in Epilife medium. Final concentrations were 3 ng/mL HEK-human IL-17AA+10 ng/mL human TNFalpha (maximum stimulation) and 10 ng/mL human TNFalpha alone (100% inhibition, Emax), respectively. Cells were incubated for 68-72 hours in the incubator. IL-8 released from the cells was measured by the use of a commercial homogenous time-resolved fluorescence (HTRF) assay (CisBio). 2 μL cell culture supernatant was transferred to a 384-well Proxiplate. 5 μL HTRF reagent was added and the plates were incubated sealed in the dark for 3-22 hours at room temperature. Time-resolved fluorescence was read at 665 vs 620 nm, with excitation at 320 nm, and IL-8 levels were calculated as percent of controls. Reduction of the amount of secreted IL-8 indicates decreased IL-17 signaling. Concentration response curves were fitted by the use of a four-parameter logistic equation. Relative IC50 and Emax were reported from curves showing acceptable fit (r^2>0.9). Cytotoxicity was measured in the cell-containing Viewplates following addition of 7 μL PrestoBlue (Thermo Fisher) and incubation for 2.5-3 hours at room temperature, by measuring fluorescence at 615 nm (excitation at 535 nm). Fluorescence was directly proportional to the amount of metabolic activity. Reduction of fluorescence signal indicated cytotoxicity.
Compounds of the present invention were tested in the IL-8 release assay in human epithelial keratinocytes.

| SMILES | pEC50 |
| --- | --- |
| Cc1n[nH]c(C)c1-c1ccc(NC(=O)C(c2nnc(-c3ccnn3C(C)C)[nH]2)C(C2CC2)C2CC2)cc1 (single isomer, unassigned) [Example 71, 3,3-dicyclopropyl-N-[4-(3,5-dimethyl-1H-pyrazol-4-yl)phenyl]-2-[5-(2-isopropylpyrazol-3-yl)-4H-1,2,4-triazol-3-yl]propanamide] | < 6.20 |
| Cc1n[nH]c(C)c1-c1ccc(NC(=O)C(c2nc(-c3ccccc3)c(Cl)[nH]2)C(C2CC2)C2CC2)cc1 (stereo not shown) [Example 3, 2-(5-chloro-4-phenyl-1H-imidazol-2-yl)-3,3-dicyclopropyl-N-[4-(3,5-dimethyl-1H-pyrazol-4-yl)phenyl]propanamide] | 5.51 |
| Cc1n[nH]c(C)c1-c1ccc(NC(=O)C(c2nnc[nH]2)C(C2CC2)C2CC2)cc1 (stereo not shown) [Example 4, 3,3-dicyclopropyl-N-[4-(3,5-dimethyl-1H-pyrazol-4-yl)phenyl]-2-(4H-1,2,4-triazol-3-yl)propanamide] | 5.54 |
| Cc1n[nH]c(C)c1-c1ccc(NC(=O)C(c2nnc(-c3ccccc3F)[nH]2)C(C2CC2)C2CC2)cc1 (stereo not shown) [Example 5, 3,3-dicyclopropyl-N-[4-(3,5-dimethyl-1H-pyrazol-4-yl)phenyl]-2-[5-(2-fluorophenyl)-4H-1,2,4-triazol-3-yl]propanamide] | 6.41 |
| Cc1n[nH]c(C)c1-c1ccc(NC(=O)C(c2ncc[nH]2)C(C2CC2)C2CC2)cc1 (stereo not shown) [Example 6, 3,3-dicyclopropyl-N-[4-(3,5-dimethyl-1H-pyrazol-4-yl)phenyl]-2-(1H-imidazol-2-yl)propanamide] | 5.89 |
| Cc1n[nH]c(C)c1-c1ccc(NC(=O)C(c2nc(-c3ccccc3)c(C)[nH]2)C(C2CC2)C2CC2)cc1 (stereo not shown) [Example 7, 3,3-dicyclopropyl-N-[4-(3,5-dimethyl-1H-pyrazol-4-yl)phenyl]-2-(5-methyl-4-phenyl-1H-imidazol-2-yl)propanamide] | 6.10 |
| COc1ccccc1-c1cnc(C(C(=O)Nc2ccc(-c3c(C)n[nH]c3C)cc2)C(C2CC2)C2CC2)[nH]1 (stereo not shown) [Example 9, 3,3-dicyclopropyl-N-[4-(3,5-dimethyl-1H-pyrazol-4-yl)phenyl]-2-[5-(2-methoxyphenyl)-1H-imidazol-2-yl]propanamide] | 6.35 |
| Cc1n[nH]c(C)c1-c1ccc(NC(=O)C(c2nnc(C3CCCC3)[nH]2)C(C2CC2)C2CC2)cc1 (stereo not shown) [Example 10, 2-(5-cyclopentyl-4H-1,2,4-triazol-3-yl)-3,3-dicyclopropyl-N-[4-(3,5-dimethyl-1H-pyrazol-4-yl)phenyl]propanamide] | 5.72 |
| Cc1n[nH]c(C)c1-c1ccc(NC(=O)C(c2nnc(Cc3cc[nH]n3)[nH]2)C(C2CC2)C2CC2)cc1 (stereo not shown) [Example 16, 3,3-dicyclopropyl-N-[4-(3,5-dimethyl-1H-pyrazol-4-yl)phenyl]-2-[5-(1H-pyrazol-3-ylmethyl)-4H-1,2,4-triazol-3-yl]propanamide] | 5.82 |
| COc1ccccc1-c1nnc(C(C(=O)Nc2ccc(-c3c(C)n[nH]c3C)cc2)C(C2CC2)C2CC2)[nH]1 (stereo not shown) [Example 19, 3,3-dicyclopropyl-N-[4-(3,5-dimethyl-1H-pyrazol-4-yl)phenyl]-2-[5-(2-methoxyphenyl)-4H-1,2,4-triazol-3-yl]propanamide] | 6.21 |
| Cc1n[nH]c(C)c1-c1ccc(NC(=O)C(c2nnc(-c3cnn(C)c3)[nH]2)C(C2CC2)C2CC2)cc1 (stereo not shown) [Example 20, 3,3-dicyclopropyl-N-[4-(3,5-dimethyl-1H-pyrazol-4-yl)phenyl]-2-[5-(1-methylpyrazol-4-yl)-4H-1,2,4-triazol-3-yl]propanamide] | 6.00 |

The next compounds have a higher pEC50 than those just listed; values first:

| pEC50 | SMILES |
| --- | --- |
| 7.57 | Cc1n[nH]c(C)c1-c1ccc(NC(=O)C(c2nnc(-c3ccnn3C(C)C)[nH]2)C(C2CC2)C2CC2)cc1 (single isomer, unassigned) [Example 70, 3,3-dicyclopropyl-N-[4-(3,5-dimethyl-1H-pyrazol-4-yl)phenyl]-2-[5-(2-isopropylpyrazol-3-yl)-4H-1,2,4-triazol-3-yl]propanamide] |
| 6.54 | Cc1n[nH]c(C)c1-c1ccc(NC(=O)C(c2nnc(-c3ccccc3)[nH]2)C(C2CC2)C2CC2)cc1 (stereo not shown) [Example 1, 3,3-dicyclopropyl-N-[4-(3,5-dimethyl-1H-pyrazol-4-yl)phenyl]-2-(5-phenyl-4H-1,2,4-triazol-3-yl)propanamide] |
| 6.51 | Cc1n[nH]c(C)c1-c1ccc(NC(=O)C(c2nc(-c3ccccc3)c[nH]2)C(C2CC2)C2CC2)cc1 (stereo not shown) [Example 2, 3,3-dicyclopropyl-N-[4-(3,5-dimethyl-1H-pyrazol-4-yl)phenyl]-2-(4-phenyl-1H-imidazol-2-yl)propanamide] |
| 7.03 | Cc1n[nH]c(C)c1-c1ccc(NC(=O)C(c2nnc(-c3ccnn3C(C)C)[nH]2)C(C2CC2)C2CC2)nc1F (stereo not shown) [Example 11, 3,3-dicyclopropyl-N-[5-(3,5-dimethyl-1H-pyrazol-4-yl)-6-fluoro-2-pyridyl]-2-[5-(2-isopropylpyrazol-3-yl)-4H-1,2,4-triazol-3-yl]propanamide] |
| 6.85 | Cc1n[nH]c(C)c1-c1ccc(NC(=O)C(c2nnc(-c3ccnn3C(C)C)[nH]2)C(C2CC2)C2CC2)c(F)c1 (stereo not shown) [Example 12, 3,3-dicyclopropyl-N-[4-(3,5-dimethyl-1H-pyrazol-4-yl)-2-fluoro-phenyl]-2-[5-(2-isopropylpyrazol-3-yl)-4H-1,2,4-triazol-3-yl]propanamide] |
| 6.77 | Cc1nonc1-c1nnc(C(C(=O)Nc2ccc(-c3c(C)n[nH]c3C)cc2)C(C2CC2)C2CC2)[nH]1 (stereo not shown) [Example 13, 3,3-dicyclopropyl-N-[4-(3,5-dimethyl-1H-pyrazol-4-yl)phenyl]-2-[5-(4-methyl-1,2,5-oxadiazol-3-yl)-4H-1,2,4-triazol-3-yl]propanamide] |
| 6.52 | Cc1n[nH]c(C)c1-c1ccc(NC(=O)C(c2nnc(-c3c(F)cnn3C)[nH]2)C(C2CC2)C2CC2)cc1 (stereo not shown) [Example 14, 3,3-dicyclopropyl-N-[4-(3,5-dimethyl-1H-pyrazol-4-yl)phenyl]-2-[5-(4-fluoro-2-methyl-pyrazol-3-yl)-4H-1,2,4-triazol-3-yl]propanamide] |
| 6.46 | Cc1n[nH]c(C)c1-c1ccc(NC(=O)C(c2nnc(Cc3cccnc3)[nH]2)C(C2CC2)C2CC2)cc1 (stereo not shown) [Example 15, 3,3-dicyclopropyl-N-[4-(3,5-dimethyl-1H-pyrazol-4-yl)phenyl]-2-[5-(3-pyridylmethyl)-4H-1,2,4-triazol-3-yl]propanamide] |
| 6.62 | Cc1n[nH]c(C)c1-c1ccc(NC(=O)C(c2nnc(Cc3ccccc3)[nH]2)C(C2CC2)C2CC2)cc1 (stereo not shown) [Example 17, 2-(5-benzyl-4H-1,2,4-triazol-3-yl)-3,3-dicyclopropyl-N-[4-(3,5-dimethyl-1H-pyrazol-4-yl)phenyl]propanamide] |
| 6.51 | Cc1n[nH]c(C)c1-c1ccc(NC(=O)C(c2nnc(-c3ccccc3Cl)[nH]2)C(C2CC2)C2CC2)cc1 (stereo not shown) [Example 18, 2-[5-(2-chlorophenyl)-4H-1,2,4-triazol-3-yl]-3,3-dicyclopropyl-N-[4-(3,5-dimethyl-1H-pyrazol-4-yl)phenyl]propanamide] |
| 6.70 | Cc1n[nH]c(C)c1-c1ccc(NC(=O)C(c2nnc(-c3ccnn3C)[nH]2)C(C2CC2)C2CC2)cc1 (stereo not shown) [Example 21, 3,3-dicyclopropyl-N-[4-(3,5-dimethyl-1H-pyrazol-4-yl)phenyl]-2-[5-(2-methylpyrazol-3-yl)-4H-1,2,4-triazol-3-yl]propanamide] |
